Assay results reported in US6056958A, “Method of treatment of arterial and venous thromboembolic disorders” (Dupont Pharmaceuticals, priority 1997, dated 2000).
Non-standard residues stand in square brackets, D forms with d. Residues, ends and D or L forms follow the SMILES beside them. 3Amb = NCc1cccc(C(=O)O)c1

Assays:
[1] = tested on: canine thrombosis model (carotid artery); experiment: Carotid artery reocclusion in canine thrombosis model with tPA; format: in vivo; conditions: dog carotid
Experimental: Compounds useful in the method of the present invention are useful for the prevention of reocclusion as an adjunct to fibrinolytic therapy, as shown in the animal model tests described below. The effect of compound A in combination with tPA on the incidence of carotid artery reocclusion in dogs was assessed using a protocol as described by Mousa et al., Circulation 1994, 89:3-12.

[2] = biological target: T1, αv /β3 receptor (Homo sapiens, UniProt P05106+P06756); experiment: αv/β3-Biotinylated Vitronectin Binding Assay; conditions: for IC50: inhibition of vitronectin binding to purified αv/β3; for Relative Binding Affinity for αv /β3 Relative to GPIIb/IIIa: ratio of IC50 values (GPIIb/IIIa over αv/β3)
T1 construct: The αv /β3 receptor was isolated from human placental extracts prepared using octylglucoside; from tissue
T1 sequence (P06756 31-889 limits assumed): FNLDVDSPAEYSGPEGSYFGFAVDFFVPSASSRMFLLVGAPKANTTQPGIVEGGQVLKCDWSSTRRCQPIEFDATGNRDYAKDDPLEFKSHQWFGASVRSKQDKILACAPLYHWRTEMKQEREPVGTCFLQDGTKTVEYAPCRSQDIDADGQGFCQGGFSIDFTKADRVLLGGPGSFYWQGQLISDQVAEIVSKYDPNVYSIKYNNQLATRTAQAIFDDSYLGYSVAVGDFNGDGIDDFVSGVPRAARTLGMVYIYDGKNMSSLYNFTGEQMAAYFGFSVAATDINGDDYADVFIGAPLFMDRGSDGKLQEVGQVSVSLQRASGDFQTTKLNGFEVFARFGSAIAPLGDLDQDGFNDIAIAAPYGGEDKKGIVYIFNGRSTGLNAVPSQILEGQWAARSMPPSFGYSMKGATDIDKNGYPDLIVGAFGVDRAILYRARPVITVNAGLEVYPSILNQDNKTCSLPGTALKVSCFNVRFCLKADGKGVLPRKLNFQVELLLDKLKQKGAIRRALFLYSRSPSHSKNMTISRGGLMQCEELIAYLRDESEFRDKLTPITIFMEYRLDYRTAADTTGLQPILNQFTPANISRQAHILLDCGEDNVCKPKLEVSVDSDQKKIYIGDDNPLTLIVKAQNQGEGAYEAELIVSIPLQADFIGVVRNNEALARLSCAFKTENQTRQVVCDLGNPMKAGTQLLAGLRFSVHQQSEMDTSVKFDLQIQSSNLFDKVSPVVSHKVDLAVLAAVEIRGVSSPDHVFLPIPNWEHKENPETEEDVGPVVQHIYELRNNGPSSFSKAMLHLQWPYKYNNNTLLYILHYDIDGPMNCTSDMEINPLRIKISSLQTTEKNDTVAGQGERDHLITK
T1 sequence (P06756 891-1048 partner limits assumed): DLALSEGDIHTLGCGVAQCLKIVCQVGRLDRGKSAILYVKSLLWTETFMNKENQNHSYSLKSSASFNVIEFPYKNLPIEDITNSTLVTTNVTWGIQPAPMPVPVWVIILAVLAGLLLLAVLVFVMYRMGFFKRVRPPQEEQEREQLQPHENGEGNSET
T1 sequence (P05106 27-788): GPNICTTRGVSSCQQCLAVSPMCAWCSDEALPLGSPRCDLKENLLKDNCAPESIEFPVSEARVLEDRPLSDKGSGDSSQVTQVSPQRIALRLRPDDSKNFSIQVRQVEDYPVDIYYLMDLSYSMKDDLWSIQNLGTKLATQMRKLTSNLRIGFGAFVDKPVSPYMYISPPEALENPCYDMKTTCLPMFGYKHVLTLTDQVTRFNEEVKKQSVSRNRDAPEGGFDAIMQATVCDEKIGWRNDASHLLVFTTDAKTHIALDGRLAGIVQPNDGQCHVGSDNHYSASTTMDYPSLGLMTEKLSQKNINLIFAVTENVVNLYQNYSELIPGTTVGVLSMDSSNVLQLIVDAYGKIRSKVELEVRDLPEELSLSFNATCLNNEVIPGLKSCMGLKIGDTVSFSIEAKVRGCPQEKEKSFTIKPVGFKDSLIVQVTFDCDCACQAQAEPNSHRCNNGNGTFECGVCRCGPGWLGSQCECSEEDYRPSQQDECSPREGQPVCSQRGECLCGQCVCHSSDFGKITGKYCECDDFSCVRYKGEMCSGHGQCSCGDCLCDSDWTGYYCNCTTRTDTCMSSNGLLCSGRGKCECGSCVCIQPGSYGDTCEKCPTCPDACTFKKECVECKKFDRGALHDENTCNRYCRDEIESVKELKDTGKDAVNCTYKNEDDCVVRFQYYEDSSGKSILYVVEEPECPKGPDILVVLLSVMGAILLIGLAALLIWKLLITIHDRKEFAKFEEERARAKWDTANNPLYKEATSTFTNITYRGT
From the text: (§1) Compounds may be tested for their ability to block binding of vitronectin to the αv /β3 receptor and to block the binding of fibrinogen to GPIIb/IIIa receptor in the αv /β3 -Biotinylated Vitronectin Binding Assay and GPIIb/IIIa Receptor-Biotinylated Fibrinogen Binding Assay described below.
αv /β3 -Biotinylated Vitronectin Binding Assay
The αv /β3 receptor was isolated from human placental extracts prepared using octylglucoside. The extract was passed over an anti-αv /β3 monoclonal antibody (LM609) affinity column (prepared using LM609 and Affigel 10). The column was subsequently washed extensively at pH 7 and pH 4.5 followed by elution at pH 3. The resulting sample was concentrated by wheat germ agglutinin chromatography to provide a αv /β3 -containing sample which gave two bands on SDS-PAGE which were confirmed as αv /β3 by western blotting.
The affinity purified αv /β3 protein as described above was diluted at different levels and plated to 96 well plates (about 15 ng of αv /β3 protein per well). ELISA detection of αv /β3 -bound biotinylated vitronectin was performed as described below using fixed concentration of biotinylated vitronectin (approximately 80 nM/well). This αv /β3 receptor preparation contains the αv /β3 with no detectable levels of αv /β5 according to the gel and according to effects of blocking antibodies for the αv /β3 or αv /β5 in the ELISA.
A submaximal concentration of biotinylated vitronectin was selected based on concentration response curves with fixed αv /β3 receptor concentration and variable concentrations of biotinylated vitronectin.
The purified αv /β3 receptor is diluted with coating buffer (20 mM Tris HCl, 150 mM NaCl, 2.0 mM CaCl2, 1.0 mM MgCl2.6H2 O, 1.0 mM MnCl2.4H2 O) and coated (100 μL/well) on Costar (3590) high capacity 96-well plates overnight at 4° C. The coating solution is discarded and the plates washed once with blocking/binding buffer (B/B buffer: 50 mM Tris HCl, 100 mM NaCl, 2.0 mM CaCl2, 1.0 mM MgCl2.6H2 O, 1.0 mM MnCl2.4H2 O). The plate-immobilized αv /β3 receptor is then blocked (200 μl/well) with 3.5% BSA in B/B buffer for 2 hours at room temperature. After washing once with 1.0% BSA in B/B buffer, biotinylated vitronectin (100 μL) and either test compound (inhibitor) (11 μL) or B/B buffer w/1.0% BSA (11 μL) is added to each well. The plates are incubated 2 hours at room temperature. The plates are washed twice with B/B buffer and incubated 1 hour at room temperature with anti-biotin alkaline phosphatase (100 μL/well) in B/B buffer containing 1.0% BSA. The plates are washed twice with B/B buffer and alkaline phosphatase substrate (100 μL) is added. Color is developed at room temperature. Color development is stopped by addition of 2N NaOH (25 μL/well) and absorbance is read at 405 nm.
The inhibitory binding constant (Ki) of test agents 30 may be calculated under this assay system using Michaelis-Menten analysis. The IC50 is the concentration of test substance needed to block 50% of the vitronectin binding to the αv /β3 receptor. The IC50 for the inhibition of binding of vitronectin to the αv /β3 receptor was determined based on time averaged values for the inhibition of vitronectin binding. Thus, the inhibition of vitronectin binding for each concentration of test compound was measured every 30 seconds over a 2 hour period and the average value of inhibition of vitronectin binding over such 2 hour period was used for the determination of the IC50.

[3] = tested on: Platelet Aggregation; experiment: Platelet Aggregation Assay (in vitro, ADP-induced, platelet-rich plasma); format: cell-based, mongrel dogs or human
Experimental: Platelet Aggregation Assay
Venous blood was obtained from anesthetized mongrel dogs or from healthy human donors who were drug-free and aspirin-free for at least two weeks prior to blood collection. Blood was collected into citrated Vacutainer tubes. The blood was centrifuged for 15 minutes at 150× g (850 RPM in a Sorvall RT6000 Tabletop Centrifuge with H-1000 B rotor) at room temperature, and platelet-rich plasma (PRP) was removed. The remaining blood was centrifuged for 15 minutes at 1500× g ([…]) at room temperature, and platelet-poor plasma (PPP) was removed. Samples were assayed on an aggregometer (PAP-4 Platelet Aggregation Profiler), using PPP as the blank (100% transmittance). 200 μL of PRP (5×10^8 platelets/mL) were added to each micro test tube, and transmittance was set to 0%. 20 μl of ADP (10 μM) was added to each tube, and the aggregation profiles were plotted (% transmittance versus time). Test agent (20 μL) was added at different concentrations prior to the addition of the platelet agonist. Results are expressed as % inhibition of agonist-induced platelet aggregation.

[4] = biological target: T2, GPIIb/IIIa receptor (Homo sapiens, UniProt P05106+P08514); experiment: GPIIb/IIIa Receptor-Biotinylated Fibrinogen Binding Assay; conditions: inhibition of fibrinogen binding to purified GPIIb/IIIa
T2 construct: The GPIIb/IIIa receptor was purified from human platelets; from tissue; host or cells: human platelets (purified according to D'Souza et al., J. Biol. Chem. 1990, 265:3440-3446)
T2 sequence (P08514 32-887 limits assumed): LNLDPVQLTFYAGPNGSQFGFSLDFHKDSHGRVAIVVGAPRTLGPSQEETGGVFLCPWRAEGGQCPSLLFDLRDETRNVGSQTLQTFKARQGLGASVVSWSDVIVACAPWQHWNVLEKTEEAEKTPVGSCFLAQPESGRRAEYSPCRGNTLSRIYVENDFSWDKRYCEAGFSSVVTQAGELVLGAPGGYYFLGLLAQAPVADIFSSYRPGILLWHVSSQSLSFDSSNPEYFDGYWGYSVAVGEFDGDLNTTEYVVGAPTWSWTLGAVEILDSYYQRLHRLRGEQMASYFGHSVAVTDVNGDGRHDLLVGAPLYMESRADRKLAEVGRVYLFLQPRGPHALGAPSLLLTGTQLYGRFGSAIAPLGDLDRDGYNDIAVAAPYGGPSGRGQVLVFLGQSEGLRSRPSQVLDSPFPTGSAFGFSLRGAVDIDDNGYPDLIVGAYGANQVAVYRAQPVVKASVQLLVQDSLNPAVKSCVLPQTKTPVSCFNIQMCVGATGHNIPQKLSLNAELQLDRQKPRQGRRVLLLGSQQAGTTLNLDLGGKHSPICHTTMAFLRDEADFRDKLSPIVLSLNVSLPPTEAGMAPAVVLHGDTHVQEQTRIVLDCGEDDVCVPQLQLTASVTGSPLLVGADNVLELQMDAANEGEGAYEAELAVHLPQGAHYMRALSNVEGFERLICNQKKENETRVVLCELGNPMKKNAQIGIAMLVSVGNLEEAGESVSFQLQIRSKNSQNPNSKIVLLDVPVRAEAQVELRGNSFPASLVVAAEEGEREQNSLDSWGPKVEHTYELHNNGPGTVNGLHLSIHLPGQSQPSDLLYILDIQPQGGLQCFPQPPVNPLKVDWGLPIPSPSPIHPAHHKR
T2 sequence (P08514 891-1039 partner limits assumed): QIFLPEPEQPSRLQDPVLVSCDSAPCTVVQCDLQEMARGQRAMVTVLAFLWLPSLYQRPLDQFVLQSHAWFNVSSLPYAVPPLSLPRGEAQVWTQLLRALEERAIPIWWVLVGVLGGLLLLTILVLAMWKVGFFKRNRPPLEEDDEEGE
T2 sequence (P05106 27-788): as the sequence (P05106 27-788) above
From the text: as §1
GPIIb/IIIa Receptor-Biotinylated Fibrinogen Binding Assay
The GPIIb/IIIa receptor was purified from human platelets according to D'Souza et al. (J. Biol. Chem., 1990, 265:3440-3446). The purified GPIIb/IIIa protein was coated on 96 well plates and the competition between test compound and biotinylated fibrinogen for binding to the plate-immobilized GPIIb/IIIa receptor was determined by ELISA as described below. Bound fibrinogen was detected using an avidin-alkaline phosphatase conjugate and paranitrophenol detection at […]. For IC50 determination, test agent was added at various concentrations to plates coated with purified GPIIb/IIIa protein which was followed by the addition of biotinylated fibrinogen. The inhibitory binding constant (Ki) of test agents were calculated under this assay system using standard Michaelis-Menten analysis. The IC50 is the concentration of test substance needed to block 50% of the fibrinogen binding to the GPIIb/IIIa receptor.
The following reagents may be used in the GPIIb/IIIa-fibrinogen binding ELISA:
purified GPIIb/IIIa (148.8 μg/mL);
biotinylated fibrinogen (~1 mg/mL or 3000 nM);
anti-biotin alkaline phosphatase conjugate (Sigma no. A7418);
flat-bottom, high binding, 96-well plates (Costar Cat. no. 3590);
phosphatase substrate (Sigma 104) (40 mg capsules);
bovine serum albumin (BSA) (Sigma no. A3294);
Alkaline Phosphatase buffer--0.1 M glycine-HCl, 1 mM MgCl2.6H2 O, 1 mM ZnCl2, pH 10.4;
Binding buffer--20 mM Tris-HCl, 150 mM NaCl, 1 mM CaCl2.2H2 O, 0.02% NaN3, pH 7.0;
Buffer A--50 mM Tris-HCl, 100 mM NaCl, 2 mM CaCl2.2H2 O, 0.02% NaN3, pH 7.4;
Buffer A+3.5% BSA (Blocking buffer);
Buffer A+0.1% BSA (Dilution buffer);
The following method steps are used in the GPIIb/IIIa-fibrinogen binding ELISA:
Coat plates with GPIIb/IIIa in Binding buffer (125 ng/100 μL/well) overnight at 4° C. (Leave first column uncoated for non-specific binding). Cover and freeze plates at -70° C. until used. Thaw plate 1 hour at room temperature or overnight at 4° C. Discard coating solution and wash once with 200 μL Binding buffer per well. Block plate 2 hours at room temperature on shaker with 200 μl Buffer A+3.5% BSA (Blocking buffer) per well. Discard Blocking buffer and wash once with 200 μL Buffer A+0.1% BSA (Dilution buffer) per well. Pipet 11 μL of test compound (10× the concentration to be tested in Dilution buffer) into duplicate wells. […] Read plate at 405 nm. Blank against non-specific binding (NSB) well. % Inhibition is calculated as 100-(Test Compound Abs/Total Abs)×100.

[5] = tPA 0.5 mg locally, 1.5 mg IV bolus, compound A 0.1 mg/kg IV bolus + 0.4 mg/kg IV infusion 3 hr, mean ± SD

Compound | Blood Flow, Basal ([1]; basal, tPA with or without compound A, mean ± SD) [cm/s] | Blood Flow, End ([1]; end, tPA with or without compound A) [cm/s] | Blood Flow, Reperfusion ([1]; reperfusion, tPA with or without compound A, mean ± SD) [cm/s] | Thrombus Weight (wet, mg) [1, 5] [mg] | Time to Occlusion [1, 5] [min] | Time to Reocclusion [1, 5] [min] | Time to Reperfusion [1, 5] [min] | IC50 [2] [nM] | Relative Binding Affinity for αv /β3 Relative to GPIIb/IIIa [2] | IC50 [3] [µM] | IC50 [4] [nM]
tPA: tissue plasminogen activator, thrombolytic agent | 30 ± 2.5 | 0 | 24.2 ± 8 | 36.2 ± 19.4 | 80 ± 25 | 23 ± 10 | 15 ± 10 |  |  |  | 
N=C(N)NCCC[C@@H]1NC(=O)[C@H](CCCCN)NC(=O)c2cccc(c2)CNC(=O)[C@H](CC(=O)O)NC(=O)CNC1=O [Compound D, cyclo-(Lys-Arg-Gly-Asp-Mamb)] (cyclo(RGD[3Amb]K)) |  |  |  |  |  |  |  | 1.9 | 189 | 23 | 359
CC(C)C[C@@H]1NC(=O)c2cccc(c2)CNC(=O)[C@H](CC(=O)O)NC(=O)CNC(=O)[C@H](CCCNC(=N)N)NC1=O [Compound E, cyclo-(Leu-Arg-Gly-Asp-Mamb)] (cyclo(RGD[3Amb]L)) |  |  |  |  |  |  |  | 1.4 | 307 | 41 | 430
